Laboratory results taken from PubChem BioAssay (NCI).
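Interpolation was linear, between the two tested concentrations surrounding the appropriate level; five concentrations were tested over 48 hours in 96-well plates. Definition used: TGI = concentration required for complete inhibition of growth.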

Tests used:
Assay in all cases: NCI-60 cell line screen, 48 h
UACC-257 melanoma = tested on: UACC-257 melanoma
HL-60(TB) leukemia = tested on: HL-60(TB) leukemia
EKVX NSCLC = tested on: EKVX NSCLC
LOX IMVI melanoma = tested on: LOX IMVI melanoma
KM20L2 colon = tested on: KM20L2 colon
ACHN renal = tested on: ACHN renal
K-562 leukemia = tested on: K-562 leukemia
SR leukemia = tested on: SR leukemia
RXF-631 renal = tested on: RXF-631 renal
MALME-3M melanoma = tested on: MALME-3M melanoma
IGROV1 ovarian = tested on: IGROV1 ovarian
CAKI-1 renal = tested on: CAKI-1 renal
SF-295 CNS = tested on: SF-295 CNS
TK-10 renal = tested on: TK-10 renal
SK-MEL-5 melanoma = tested on: SK-MEL-5 melanoma
U251 CNS = tested on: U251 CNS
COLO 205 colon = tested on: COLO 205 colon
HOP-18 NSCLC = tested on: HOP-18 NSCLC
SNB-19 CNS = tested on: SNB-19 CNS
SW-620 colon = tested on: SW-620 colon
A549 NSCLC = tested on: A549 NSCLC
SNB-75 CNS = tested on: SNB-75 CNS
CCRF-CEM leukemia = tested on: CCRF-CEM leukemia
NCI-H522 lung = tested on: NCI-H522 lung
NCI-H460 lung = tested on: NCI-H460 lung
RPMI-8226 leukemia = tested on: RPMI-8226 leukemia
SK-MEL-28 melanoma = tested on: SK-MEL-28 melanoma
786-0 renal = tested on: 786-0 renal
LXFL 529 NSCLC = tested on: LXFL 529 NSCLC
SNB-78 CNS = tested on: SNB-78 CNS
SN12C renal = tested on: SN12C renal
SF-539 CNS = tested on: SF-539 CNS
OVCAR-5 ovarian = tested on: OVCAR-5 ovarian
UO-31 renal = tested on: UO-31 renal
HT29 colon = tested on: HT29 colon
SK-OV-3 ovarian = tested on: SK-OV-3 ovarian
NCI-H226 lung = tested on: NCI-H226 lung
HCT-116 colon = tested on: HCT-116 colon
HCC-2998 colon = tested on: HCC-2998 colon
UACC-62 melanoma = tested on: UACC-62 melanoma
HCT-15 colon = tested on: HCT-15 colon
HOP-62 NSCLC = tested on: HOP-62 NSCLC
M19-MEL melanoma = tested on: M19-MEL melanoma
A498 renal = tested on: A498 renal
DMS 114 small cell lung = tested on: DMS 114 small cell lung
HOP-92 NSCLC = tested on: HOP-92 NSCLC
OVCAR-4 ovarian = tested on: OVCAR-4 ovarian
SF-268 CNS = tested on: SF-268 CNS
OVCAR-3 ovarian = tested on: OVCAR-3 ovarian
M14 melanoma = tested on: M14 melanoma
DLD-1 colon = tested on: DLD-1 colon
KM12 colon = tested on: KM12 colon
OVCAR-8 ovarian = tested on: OVCAR-8 ovarian
RXF 393 renal = tested on: RXF 393 renal
XF 498 CNS = tested on: XF 498 CNS
NCI-H23 lung = tested on: NCI-H23 lung
DMS 273 small cell lung = tested on: DMS 273 small cell lung
SK-MEL-2 melanoma = tested on: SK-MEL-2 melanoma
MOLT-4 leukemia = tested on: MOLT-4 leukemia

In the case of `COc1ccc(NC(=O)/C(Cc2nc3ccccc3[nH]c2=O)=N\O)c(OC)c1`, the TGI (UACC-257 melanoma) is reported as greater than 100 µM, the TGI (HL-60(TB) leukemia) is reported as greater than 100 µM and the TGI (EKVX NSCLC) is reported as greater than 100 µM. The TGI (LOX IMVI melanoma) was greater than 100 µM, the TGI (KM20L2 colon) was greater than 100 µM and the TGI (ACHN renal) was greater than 100 µM. It also gave a TGI (K-562 leukemia) greater than 100 µM, a TGI (SR leukemia) greater than 100 µM and a TGI (RXF-631 renal) greater than 100 µM. The TGI (MALME-3M melanoma) was greater than 100 µM, the TGI (IGROV1 ovarian) was greater than 100 µM and the TGI (CAKI-1 renal) was greater than 100 µM. It also gave a TGI (SF-295 CNS) greater than 100 µM, a TGI (TK-10 renal) greater than 100 µM and a TGI (SK-MEL-5 melanoma) greater than 100 µM. The TGI (U251 CNS) was greater than 100 µM, the TGI (COLO 205 colon) was greater than 100 µM and the TGI (HOP-18 NSCLC) was greater than 100 µM. It also gave a TGI (SNB-19 CNS) greater than 100 µM, a TGI (SW-620 colon) greater than 100 µM and a TGI (A549 NSCLC) greater than 100 µM. For the same compound, the TGI (SNB-75 CNS) was greater than 100 µM, the TGI (CCRF-CEM leukemia) was greater than 100 µM and the TGI (NCI-H522 lung) was greater than 100 µM. For the same compound, the TGI (NCI-H460 lung) was greater than 100 µM, the TGI (RPMI-8226 leukemia) was greater than 100 µM and the TGI (SK-MEL-28 melanoma) was greater than 100 µM. The TGI (786-0 renal) was greater than 100 µM, the TGI (LXFL 529 NSCLC) was greater than 100 µM and the TGI (SNB-78 CNS) was greater than 100 µM. It also gave a TGI (SN12C renal) greater than 100 µM, a TGI (SF-539 CNS) greater than 100 µM and a TGI (OVCAR-5 ovarian) greater than 100 µM. For the same compound, the TGI (UO-31 renal) was greater than 100 µM, the TGI (HT29 colon) was greater than 100 µM and the TGI (SK-OV-3 ovarian) was greater than 100 µM. It also gave a TGI (NCI-H226 lung) greater than 100 µM, a TGI (HCT-116 colon) greater than 100 µM and a TGI (HCC-2998 colon) greater than 100 µM. For the same compound, the TGI (UACC-62 melanoma) was greater than 100 µM, the TGI (HCT-15 colon) was greater than 100 µM and the TGI (HOP-62 NSCLC) was greater than 100 µM. For the same compound, the TGI (M19-MEL melanoma) was greater than 100 µM, the TGI (A498 renal) was greater than 100 µM and the TGI (DMS 114 small cell lung) was greater than 100 µM. The TGI (HOP-92 NSCLC) was greater than 100 µM, the TGI (OVCAR-4 ovarian) was greater than 100 µM and the TGI (SF-268 CNS) was greater than 100 µM. It also gave a TGI (OVCAR-3 ovarian) greater than 100 µM, a TGI (M14 melanoma) greater than 100 µM and a TGI (DLD-1 colon) greater than 100 µM. It also gave a TGI (KM12 colon) greater than 100 µM, a TGI (OVCAR-8 ovarian) greater than 100 µM and a TGI (RXF 393 renal) greater than 100 µM. For the same compound, the TGI (XF 498 CNS) was greater than 100 µM and the TGI (NCI-H23 lung) was greater than 100 µM.
Compound `O=C(CC1C(=O)Nc2ccccc2S1=O)Nc1ccccc1` (configuration not stated) has a TGI (DMS 273 small cell lung) greater than 100 µM, a TGI (UACC-257 melanoma) greater than 100 µM and a TGI (HL-60(TB) leukemia) greater than 100 µM. It also gave a TGI (EKVX NSCLC) greater than 100 µM, a TGI (KM20L2 colon) greater than 100 µM and a TGI (ACHN renal) greater than 100 µM. It also gave a TGI (SR leukemia) greater than 100 µM, a TGI (RXF-631 renal) greater than 100 µM and a TGI (MALME-3M melanoma) greater than 100 µM. The TGI (IGROV1 ovarian) was greater than 100 µM, the TGI (SK-MEL-2 melanoma) was greater than 100 µM and the TGI (CAKI-1 renal) was greater than 100 µM. For the same compound, the TGI (SF-295 CNS) was greater than 100 µM, the TGI (TK-10 renal) was greater than 100 µM and the TGI (SK-MEL-5 melanoma) was greater than 100 µM. It also gave a TGI (U251 CNS) greater than 100 µM, a TGI (COLO 205 colon) greater than 100 µM and a TGI (MOLT-4 leukemia) greater than 100 µM. For the same compound, the TGI (HOP-18 NSCLC) was greater than 100 µM, the TGI (SNB-19 CNS) was greater than 100 µM and the TGI (SW-620 colon) was greater than 100 µM. The TGI (A549 NSCLC) was greater than 100 µM, the TGI (SNB-75 CNS) was greater than 100 µM and the TGI (CCRF-CEM leukemia) was greater than 100 µM. The TGI (NCI-H522 lung) was greater than 100 µM, the TGI (NCI-H460 lung) was greater than 100 µM and the TGI (SK-MEL-28 melanoma) was greater than 100 µM. It also gave a TGI (786-0 renal) greater than 100 µM, a TGI (LXFL 529 NSCLC) greater than 100 µM and a TGI (SNB-78 CNS) greater than 100 µM. It also gave a TGI (SN12C renal) greater than 100 µM, a TGI (SF-539 CNS) greater than 100 µM and a TGI (OVCAR-5 ovarian) greater than 100 µM. It also gave a TGI (UO-31 renal) greater than 100 µM, a TGI (HT29 colon) greater than 100 µM and a TGI (SK-OV-3 ovarian) of 62.6 µM. The TGI (NCI-H226 lung) was greater than 100 µM, the TGI (HCT-116 colon) was greater than 100 µM and the TGI (HCC-2998 colon) was greater than 100 µM. It also gave a TGI (UACC-62 melanoma) greater than 100 µM, a TGI (HCT-15 colon) greater than 100 µM and a TGI (HOP-62 NSCLC) greater than 100 µM. The TGI (M19-MEL melanoma) was greater than 100 µM, the TGI (A498 renal) was greater than 100 µM and the TGI (DMS 114 small cell lung) was greater than 100 µM. The TGI (HOP-92 NSCLC) was greater than 100 µM, the TGI (OVCAR-4 ovarian) was greater than 100 µM and the TGI (SF-268 CNS) was greater than 100 µM. For the same compound, the TGI (OVCAR-3 ovarian) was greater than 100 µM, the TGI (M14 melanoma) was greater than 100 µM and the TGI (DLD-1 colon) was greater than 100 µM. It also gave a TGI (KM12 colon) greater than 100 µM, a TGI (OVCAR-8 ovarian) greater than 100 µM and a TGI (RXF 393 renal) of 45 µM. For the same compound, the TGI (XF 498 CNS) was greater than 100 µM and the TGI (NCI-H23 lung) was greater than 100 µM.
With `O=C1C2C(C(=O)N1c1ccccc1)C1(Br)c3ccccc3C2(Br)C2C(=O)N(c3ccccc3)C(=O)C21` (configuration not stated) the TGI (DMS 273 small cell lung) was greater than 31.6 µM, the TGI (UACC-257 melanoma) was greater than 31.6 µM and the TGI (HL-60(TB) leukemia) was greater than 31.6 µM. It also gave a TGI (EKVX NSCLC) greater than 31.6 µM, a TGI (LOX IMVI melanoma) greater than 31.6 µM and a TGI (KM20L2 colon) greater than 31.6 µM. It also gave a TGI (ACHN renal) greater than 31.6 µM, a TGI (K-562 leukemia) greater than 31.6 µM and a TGI (RXF-631 renal) greater than 100 µM. It also gave a TGI (MALME-3M melanoma) greater than 31.6 µM, a TGI (IGROV1 ovarian) greater than 31.6 µM and a TGI (SK-MEL-2 melanoma) greater than 31.6 µM. For the same compound, the TGI (CAKI-1 renal) was greater than 100 µM, the TGI (SF-295 CNS) was greater than 100 µM and the TGI (TK-10 renal) was greater than 31.6 µM. For the same compound, the TGI (SK-MEL-5 melanoma) was greater than 31.6 µM, the TGI (U251 CNS) was greater than 31.6 µM and the TGI (COLO 205 colon) was greater than 31.6 µM. The TGI (MOLT-4 leukemia) was greater than 31.6 µM, the TGI (HOP-18 NSCLC) was greater than 31.6 µM and the TGI (SNB-19 CNS) was greater than 31.6 µM. The TGI (SW-620 colon) was greater than 31.6 µM, the TGI (A549 NSCLC) was greater than 31.6 µM and the TGI (SNB-75 CNS) was greater than 31.6 µM. For the same compound, the TGI (CCRF-CEM leukemia) was greater than 31.6 µM, the TGI (NCI-H460 lung) was greater than 31.6 µM and the TGI (RPMI-8226 leukemia) was greater than 31.6 µM. For the same compound, the TGI (SK-MEL-28 melanoma) was greater than 31.6 µM, the TGI (786-0 renal) was greater than 31.6 µM and the TGI (LXFL 529 NSCLC) was greater than 31.6 µM. The TGI (SNB-78 CNS) was greater than 31.6 µM, the TGI (SN12C renal) was greater than 31.6 µM and the TGI (SF-539 CNS) was greater than 31.6 µM. It also gave a TGI (OVCAR-5 ovarian) greater than 31.6 µM, a TGI (UO-31 renal) greater than 31.6 µM and a TGI (HT29 colon) greater than 31.6 µM. The TGI (SK-OV-3 ovarian) was greater than 100 µM, the TGI (NCI-H226 lung) was greater than 31.6 µM and the TGI (HCT-116 colon) was greater than 31.6 µM. The TGI (HCC-2998 colon) was greater than 31.6 µM, the TGI (UACC-62 melanoma) was greater than 31.6 µM and the TGI (HCT-15 colon) was greater than 31.6 µM. The TGI (M19-MEL melanoma) was greater than 31.6 µM, the TGI (A498 renal) was greater than 100 µM and the TGI (DMS 114 small cell lung) was greater than 31.6 µM. For the same compound, the TGI (OVCAR-4 ovarian) was greater than 100 µM, the TGI (SF-268 CNS) was greater than 31.6 µM and the TGI (OVCAR-3 ovarian) was greater than 31.6 µM. It also gave a TGI (M14 melanoma) greater than 31.6 µM, a TGI (DLD-1 colon) greater than 31.6 µM and a TGI (KM12 colon) greater than 31.6 µM. It also gave a TGI (OVCAR-8 ovarian) greater than 100 µM, a TGI (RXF 393 renal) of 27.1 µM and a TGI (XF 498 CNS) greater than 100 µM. For the same compound, the TGI (NCI-H23 lung) was greater than 31.6 µM.
